Measurements as given in US20260210856A1, “CONJUGATED OLIGOELECTROLYTES WITH BORON-DIPYRROMETHENE CORES AND METHODS THEREOF” (National University of Singapore, priority 2022, published 2026).

Columns and labels:
[1] = Photophysical properties in PBS and in SUVs (POPC:POPG 85:15); type: physicochemical; conditions: for FWHM: fluorescence spectra, intercalated within SUVs; for fluorescence intensity increase upon inserting into lipid bilayers: relative to the values measured in PBS
Text: The photophysical properties of the COE-BY series were studied in phosphate-buffered saline (PBS) and within model lipid bilayers. Small unilamellar vesicles (SUVs) composed of 1-palmitoyl-2-oleoyl-glycero-3-phosphocholine (POPC) and 1-palmitoyl-2-oleoyl-sn-glycero-3-phospho-(1′-rac-glycerol) sodium (POPG) (85:15, mol/mol) were used to simulate the lipid environment in cell membranes. The absorption spectra in PBS for all compounds feature a main peak at ~550 nm, reflecting the presence of the BODIPY subunit (FIG. 9A). One also observes a 5-10 nm red-shift of lowest energy absorption peak with increasing electron-withdrawing strength of the phenyl substituents.
Upon inserting into lipid bilayers, the fluorescence intensity increases over 27-fold for COE-BYPhMe, 30-fold for COE-BYPhOC4, 35-fold for COE-BYPhCN and 40-fold for COE-BYPhNO, relative to the values measured in PBS (FIG. 1c and FIG. S5). The increase in emission intensity reflects a transition to a more rigid and hydrophobic environment. Quantum yields increase to 32% for COE-BYPhMe, 60% for COE-BYPhOC4, 13% for COE-BYPhCN, and 10% for COE-BYPhNO in SUVs from 1% for COE-BYPhMe, 3% for COE-BYPhOC4, and 0.5% for COE-BYPhCN in PBS. The QY of COE-BYPhNO in PBS cannot be accurately determined by using a conventional fluorometer due to its weak fluorescence. The maximum emission wavelengths are redshifted from 587/589 nm (COE-BYPhMe/OC4) to 605/611 nm (COE-BYPhCN/NO) as a result of the decreased HOMO-LUMO energy gaps. […] Furthermore, the fluorescence spectra of COE-BYs intercalated within SUVs show a narrow band at wavelengths between 587 nm and 611 nm, with a full width half maximum (FWHM) linewidth of 52-68 nm (Table 1).

A549 cells = assay: Two-photon fluorescence imaging and FLIM of stained cells; type: cell-based; conditions: A549, 1 μM, 24 hours
Text: Fluorescence imaging is usually based on the analysis of fluorescence intensity, which is affected by many factors including dye concentration, laser power, the sensitivity of the detector, and sampling time. The main advantage of fluorescence lifetime imaging (FLIM) is independent of the above experimental conditions, especially the local dye concentration gradients, which makes FLIM an ideal method for studies in living cell models. […] The fluorescence lifetime of COE-BYs could be a function of viscosity after calibration. FLIM makes it possible to produce spatial viscosity maps after staining with COE-BYs. A549 cells were stained with COE-BYPhMe and COE-S6 (1 μM) for 24 hours, respectively. The cell samples were analyzed using two-photon fluorescence imaging and FLIM.

[2] = commercial dyes for comparison; cited from earlier work

Structure (SMILES)	FWHM [1] [nm]	ΦF in PBS ([1]; in PBS) [%]	λabs ([1]; in PBS) [nm]	λem in PBS ([1]; in PBS) [nm]	ΦF in SUVs [1] [%]	λem in SUVs [1] [nm]	fluorescence intensity increase upon inserting into lipid bilayers [1] [fold]	lifetimes in phasor plot (A549 cells)	two photon absorption cross section area [2] [GM]
CC1=C(c2ccc(/C=C/c3cc(OCCCCCC[N+](C)(C)C)c(OCCCCCC[N+](C)(C)C)c(OCCCCCC[N+](C)(C)C)c3)cc2)C(C)=[N+]2C1=C(c1ccc(C#N)cc1)c1c(C)c(-c3ccc(/C=C/c4cc(OCCCCCC[N+](C)(C)C)c(OCCCCCC[N+](C)(C)C)c(OCCCCCC[N+](C)(C)C)c4)cc3)c(C)n1[B-]2(F)F.[I-].[I-].[I-].[I-].[I-].[I-] [COE-BYPhCN]	63	0.5	550	618	13	605	> 35	–	–
CC1=C(c2ccc(/C=C/c3cc(OCCCCCC[N+](C)(C)C)c(OCCCCCC[N+](C)(C)C)c(OCCCCCC[N+](C)(C)C)c3)cc2)C(C)=[N+]2C1=C(c1ccc([N+](=O)[O-])cc1)c1c(C)c(-c3ccc(/C=C/c4cc(OCCCCCC[N+](C)(C)C)c(OCCCCCC[N+](C)(C)C)c(OCCCCCC[N+](C)(C)C)c4)cc3)c(C)n1[B-]2(F)F.[I-].[I-].[I-].[I-].[I-].[I-] [COE-BYPhNO]	68	–	556	625	10	611	> 40	–	–
C[N+](C)(C)CCCCCCOc1cc(/C=C/c2ccc(/C=C/c3ccc(/C=C/c4ccc(/C=C/c5ccc(/C=C/c6cc(OCCCCCC[N+](C)(C)C)c(OCCCCCC[N+](C)(C)C)c(OCCCCCC[N+](C)(C)C)c6)cc5)cc4)cc3)cc2)cc(OCCCCCC[N+](C)(C)C)c1OCCCCCC[N+](C)(C)C.[I-].[I-].[I-].[I-].[I-].[I-] [COE-S6]	–	–	–	–	–	–	–	only single area in the phasor plot	–
CCCCCCCCCCCCCCCCCCN1/C(=C/C=C/C2=[N+](CCCCCCCCCCCCCCCCCC)c3ccccc3C2(C)C)C(C)(C)c2ccccc21.[O-][Cl+3]([O-])([O-])[O-] [DiL, carbocyanine DiL]	–	–	–	–	–	–	–	–	10
CCN(CC)c1ccc2c(-c3ccccc3C(=O)O)c3ccc(=[N+](CC)CC)cc-3oc2c1.[Cl-] [Rhodamine B]	–	–	–	–	–	–	–	–	150
